# Where two headings read alike, the source gives them in different places.
# Assays:
# Format in all cases: cell-based
# [1] = molecular target: T1, GLP-1R (Homo sapiens, UniProt P43220); test: HitHunter cAMP assay (GLP-1R); conditions: cAMP; for Emax: read-out: (Emax) GLP-1R
# Summary of the method: (§1)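 Cells were resuspended in HBSS plus HEPES, IBMX (625 μM) and BSA, then dispensed with antibody at 10,000 per well. Agonists followed as 22-point twofold series, 30 min at room temperature. Antibody reagent and detection steps ran 1 h and overnight in the dark before luminescence.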
# [2] = molecular target: T2, GIP-R (Homo sapiens, UniProt P48546); test: HitHunter cAMP assay (GIP-R); conditions: cAMP; for Emax: read-out: (Emax) GIP-R
# T2 sequence (P48546 22-466): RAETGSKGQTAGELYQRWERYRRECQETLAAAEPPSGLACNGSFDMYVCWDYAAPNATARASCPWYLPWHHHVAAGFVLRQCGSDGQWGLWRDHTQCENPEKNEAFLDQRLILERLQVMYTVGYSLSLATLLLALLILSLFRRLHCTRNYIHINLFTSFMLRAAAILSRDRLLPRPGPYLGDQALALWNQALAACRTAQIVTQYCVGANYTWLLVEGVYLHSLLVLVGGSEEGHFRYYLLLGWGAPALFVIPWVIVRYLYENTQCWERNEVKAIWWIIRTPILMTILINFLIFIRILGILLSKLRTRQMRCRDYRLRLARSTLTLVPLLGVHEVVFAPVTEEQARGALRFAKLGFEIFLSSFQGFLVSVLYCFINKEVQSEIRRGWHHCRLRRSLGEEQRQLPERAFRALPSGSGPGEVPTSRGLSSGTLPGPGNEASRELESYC
# Summary of the method: as §1
# [3] = molecular target: T1, GLP-1R; test: PathHunter β-arrestin assay
# Summary of the method: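 Agonist concentration–response (22 points, 2-fold steps, duplicates) was run on cells plated the previous day in BSA-supplemented (0.2%) medium. Stimulation lasted 90 min at 37 °C, followed by a 3 h dark incubation with detection reagent at room temperature and a luminescence read.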
# [4] = Table 3, read-out: EC50 GLP-1R/nM
# [5] = Table 3A, read-out: EC50 GLP-1R/nM
# [6] = Table 3, read-out: EC50 GIP-R/nM
# [7] = Table 3A, read-out: EC50 GIP-R/nM
# [8] = PathHunter β-arrestin assay, read-out: β-arrestin activity EC50
# T1 sequence (P43220 24-463): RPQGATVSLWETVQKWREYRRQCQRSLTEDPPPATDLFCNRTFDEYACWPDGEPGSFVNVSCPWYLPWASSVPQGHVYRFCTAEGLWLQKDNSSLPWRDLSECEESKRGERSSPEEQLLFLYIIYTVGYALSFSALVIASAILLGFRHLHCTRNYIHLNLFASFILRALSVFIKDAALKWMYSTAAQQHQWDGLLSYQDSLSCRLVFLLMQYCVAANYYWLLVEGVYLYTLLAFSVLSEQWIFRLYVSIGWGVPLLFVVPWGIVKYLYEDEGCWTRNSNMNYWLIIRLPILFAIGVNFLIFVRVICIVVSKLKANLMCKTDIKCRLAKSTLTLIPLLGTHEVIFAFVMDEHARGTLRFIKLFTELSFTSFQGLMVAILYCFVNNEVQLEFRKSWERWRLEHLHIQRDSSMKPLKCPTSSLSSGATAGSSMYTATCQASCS
Structure (SMILES),"EC50 ([1]; EC50 GLP-1R/nM, Table 3) [nM]","EC50 ([1]; EC50 GLP-1R/nM, Table 3A) [nM]",Emax ([1]; Table 3) [%],Emax ([1]; Table 3A) [%],"EC50 ([2]; EC50 GIP-R/nM, Table 3) [nM]","EC50 ([2]; EC50 GIP-R/nM, Table 3A) [nM]",Emax ([2]; Table 3) [%],Emax ([2]; Table 3A) [%],EC50 [3] [nM],"EC50 [1, 4] [nM]","EC50 [1, 5] [nM]","EC50 [2, 6] [nM]","EC50 [2, 7] [nM]","EC50 [3, 8] [nM]"
CCCCCCCCCCCCCCCC(=O)N[C@@H](CCC(=O)NCCCC[C@H](NC(=O)[C@H](CO)NC(=O)[C@@H]1CCCN1C(=O)[C@@H]1CCCN1C(=O)[C@@H]1CCCN1C(=O)[C@H](C)NC(=O)CNC(=O)[C@H](CO)NC(=O)[C@H](CO)NC(=O)[C@@H]1CCCN1C(=O)CNC(=O)CNC(=O)[C@H](C)NC(=O)[C@H](CC(C)C)NC(=O)[C@H](CC(C)C)NC(=O)[C@H](Cc1c[nH]c2ccccc12)NC(=O)[C@H](CC(N)=O)NC(=O)[C@@H](NC(=O)[C@H](Cc1ccccc1)NC(=O)[C@H](CCC(=O)O)NC(=O)C(C)(C)NC(=O)[C@H](C)NC(=O)[C@H](C)NC(=O)[C@H](CCC(N)=O)NC(=O)[C@H](CCCCN)NC(=O)[C@H](CC(=O)O)NC(=O)[C@H](CC(C)C)NC(=O)[C@H](Cc1ccc(O)cc1)NC(=O)[C@@H](NC(=O)[C@H](CO)NC(=O)[C@H](Cc1ccc(O)cc1)NC(=O)[C@H](CC(=O)O)NC(=O)[C@H](CO)NC(=O)[C@@H](NC(=O)[C@H](Cc1ccccc1)NC(=O)[C@@H](NC(=O)CNC(=O)[C@H](CCC(=O)O)NC(=O)CSCC(=O)NCCN1C[C@@H](OC)CC1=O)[C@@H](C)O)[C@@H](C)O)[C@@H](C)CC)C(C)C)C(N)=O)C(=O)O [Compound 22],0.1 to 1,0.1 to 1,90,90,0.1 to 1,0.1 to 1,46,46,> 1000,,,,,
CCCCCCCCCCCCCCCC(=O)N[C@@H](CCC(=O)NCCCC[C@H](NC(=O)[C@H](CO)NC(=O)[C@@H]1CCCN1C(=O)[C@@H]1CCCN1C(=O)[C@@H]1CCCN1C(=O)[C@H](C)NC(=O)CNC(=O)[C@H](CO)NC(=O)[C@H](CO)NC(=O)[C@@H]1CCCN1C(=O)CNC(=O)CNC(=O)[C@H](C)NC(=O)[C@H](CC(C)C)NC(=O)[C@H](CC(C)C)NC(=O)[C@H](Cc1c[nH]c2ccccc12)NC(=O)[C@H](CC(N)=O)NC(=O)[C@@H](NC(=O)[C@H](Cc1ccccc1)NC(=O)[C@H](CCC(=O)O)NC(=O)C(C)(C)NC(=O)[C@H](C)NC(=O)[C@H](C)NC(=O)[C@H](CCC(N)=O)NC(=O)[C@H](CCCCN)NC(=O)[C@H](CC(=O)O)NC(=O)[C@H](CC(C)C)NC(=O)[C@H](Cc1ccc(O)cc1)NC(=O)[C@@H](NC(=O)[C@H](CO)NC(=O)[C@H](Cc1ccc(O)cc1)NC(=O)[C@H](CC(=O)O)NC(=O)[C@H](CO)NC(=O)[C@@H](NC(=O)[C@H](Cc1ccccc1)NC(=O)[C@@H](NC(=O)CNC(=O)[C@H](CCC(=O)O)NC(=O)CSCC(=O)NCCN1CCCN(C)C1=O)[C@@H](C)O)[C@@H](C)O)[C@@H](C)CC)C(C)C)C(N)=O)C(=O)O [Compound 23],1 to 10,1 to 10,83,83,1 to 10,1 to 10,37,37,> 1000,,,,,
CCCCCCCCCCCCCCCC(=O)N[C@@H](CCC(=O)NCCCC[C@H](NC(=O)[C@H](CO)NC(=O)[C@@H]1CCCN1C(=O)[C@@H]1CCCN1C(=O)[C@@H]1CCCN1C(=O)[C@H](C)NC(=O)CNC(=O)[C@H](CO)NC(=O)[C@H](CO)NC(=O)[C@@H]1CCCN1C(=O)CNC(=O)CNC(=O)[C@H](C)NC(=O)[C@H](CC(C)C)NC(=O)[C@H](CC(C)C)NC(=O)[C@H](Cc1c[nH]c2ccccc12)NC(=O)[C@H](CC(N)=O)NC(=O)[C@@H](NC(=O)[C@H](Cc1ccccc1)NC(=O)[C@H](CCC(=O)O)NC(=O)C(C)(C)NC(=O)[C@H](C)NC(=O)[C@H](C)NC(=O)[C@H](CCC(N)=O)NC(=O)[C@H](CCCCN)NC(=O)[C@H](CC(=O)O)NC(=O)[C@H](CC(C)C)NC(=O)[C@H](Cc1ccc(O)cc1)NC(=O)[C@@H](NC(=O)[C@H](CO)NC(=O)[C@H](Cc1ccc(O)cc1)NC(=O)[C@H](CC(=O)O)NC(=O)[C@H](CO)NC(=O)[C@@H](NC(=O)[C@H](Cc1ccccc1)NC(=O)[C@@H](NC(=O)CNC(=O)[C@H](CCC(=O)O)NC(=O)CSCC(=O)NCCN1CCNC(=O)C1=O)[C@@H](C)O)[C@@H](C)O)[C@@H](C)CC)C(C)C)C(N)=O)C(=O)O [Compound 24],0.1 to 1,0.1 to 1,92,92,1 to 10,100 to 1000,15,15,> 1000,,,,,
CCCCCCCCCCCCCCCC(=O)N[C@@H](CCC(=O)NCCCC[C@H](NC(=O)[C@H](CO)NC(=O)[C@@H]1CCCN1C(=O)[C@@H]1CCCN1C(=O)[C@@H]1CCCN1C(=O)[C@H](C)NC(=O)CNC(=O)[C@H](CO)NC(=O)[C@H](CO)NC(=O)[C@@H]1CCCN1C(=O)CNC(=O)CNC(=O)[C@H](C)NC(=O)[C@H](CC(C)C)NC(=O)[C@H](CC(C)C)NC(=O)[C@H](Cc1c[nH]c2ccccc12)NC(=O)[C@H](CC(N)=O)NC(=O)[C@@H](NC(=O)[C@H](Cc1ccccc1)NC(=O)[C@H](CCC(=O)O)NC(=O)C(C)(C)NC(=O)[C@H](C)NC(=O)[C@H](C)NC(=O)[C@H](CCC(N)=O)NC(=O)[C@H](CCCCN)NC(=O)[C@H](CC(=O)O)NC(=O)[C@H](CC(C)C)NC(=O)[C@H](Cc1ccc(O)cc1)NC(=O)[C@@H](NC(=O)[C@H](CO)NC(=O)[C@H](Cc1ccc(O)cc1)NC(=O)[C@H](CC(=O)O)NC(=O)[C@H](CO)NC(=O)[C@@H](NC(=O)[C@H](Cc1ccccc1)NC(=O)[C@@H](NC(=O)CNC(=O)[C@H](CCC(=O)O)NC(=O)CSCC(=O)NCCN1CC(=O)NCC1=O)[C@@H](C)O)[C@@H](C)O)[C@@H](C)CC)C(C)C)C(N)=O)C(=O)O [Compound 25],,,86,86,,,43,43,,1 to 10,1 to 10,1 to 10,1 to 10,> 1000
CCCCCCCCCCCCCCCC(=O)N[C@@H](CCC(=O)NCCCC[C@H](NC(=O)[C@H](CO)NC(=O)[C@@H]1CCCN1C(=O)[C@@H]1CCCN1C(=O)[C@@H]1CCCN1C(=O)[C@H](C)NC(=O)CNC(=O)[C@H](CO)NC(=O)[C@H](CO)NC(=O)[C@@H]1CCCN1C(=O)CNC(=O)CNC(=O)[C@H](C)NC(=O)[C@H](CC(C)C)NC(=O)[C@H](CC(C)C)NC(=O)[C@H](Cc1c[nH]c2ccccc12)NC(=O)[C@H](CC(N)=O)NC(=O)[C@@H](NC(=O)[C@H](Cc1ccccc1)NC(=O)[C@H](CCC(=O)O)NC(=O)C(C)(C)NC(=O)[C@H](C)NC(=O)[C@H](C)NC(=O)[C@H](CCC(N)=O)NC(=O)[C@H](CCCCN)NC(=O)[C@H](CC(=O)O)NC(=O)[C@H](CC(C)C)NC(=O)[C@H](Cc1ccc(O)cc1)NC(=O)[C@@H](NC(=O)[C@H](CO)NC(=O)[C@H](Cc1ccc(O)cc1)NC(=O)[C@H](CC(=O)O)NC(=O)[C@H](CO)NC(=O)[C@@H](NC(=O)[C@H](Cc1ccccc1)NC(=O)[C@@H](NC(=O)CNC(=O)[C@H](CCC(=O)O)NC(=O)CCC(=O)NCCN1CCCCC1=O)[C@@H](C)O)[C@@H](C)O)[C@@H](C)CC)C(C)C)C(N)=O)C(=O)O [Compound 26],,,95,95,,,64,64,,0.1 to 1,0.1 to 1,1 to 10,1 to 10,> 1000
CCCCCCCCCCCCCCCC(=O)N[C@@H](CCC(=O)NCCCC[C@H](NC(=O)[C@H](CO)NC(=O)[C@@H]1CCCN1C(=O)[C@@H]1CCCN1C(=O)[C@@H]1CCCN1C(=O)[C@H](C)NC(=O)CNC(=O)[C@H](CO)NC(=O)[C@H](CO)NC(=O)[C@@H]1CCCN1C(=O)CNC(=O)CNC(=O)[C@H](C)NC(=O)[C@H](CC(C)C)NC(=O)[C@H](CC(C)C)NC(=O)[C@H](Cc1c[nH]c2ccccc12)NC(=O)[C@H](CC(N)=O)NC(=O)[C@@H](NC(=O)[C@H](Cc1ccccc1)NC(=O)[C@H](CCC(=O)O)NC(=O)C(C)(C)NC(=O)[C@H](C)NC(=O)[C@H](C)NC(=O)[C@H](CCC(N)=O)NC(=O)[C@H](CCCCN)NC(=O)[C@H](CC(=O)O)NC(=O)[C@H](CC(C)C)NC(=O)[C@H](Cc1ccc(O)cc1)NC(=O)[C@@H](NC(=O)[C@H](CO)NC(=O)[C@H](Cc1ccc(O)cc1)NC(=O)[C@H](CC(=O)O)NC(=O)[C@H](CO)NC(=O)[C@@H](NC(=O)[C@H](Cc1ccccc1)NC(=O)[C@@H](NC(=O)CNC(=O)[C@H](CCC(=O)O)NC(=O)CCCC(=O)NCCN1CCCCC1=O)[C@@H](C)O)[C@@H](C)O)[C@@H](C)CC)C(C)C)C(N)=O)C(=O)O [Compound 27],,,95,95,,,45,45,,0.1 to 1,0.1 to 1,1 to 10,1 to 10,> 1000
